In article PMC8224742, “Evaluation of 1β-Hydroxylation of Deoxycholic Acid as a Non-Invasive Urinary Biomarker of CYP3A Activity in the Assessment of Inhibition-Based Drug–Drug Interaction in Healthy Volunteers” (Journal of Personalized Medicine, 2021):

Legend:
CYP3A [1] = assay: Oral MDZ (1.5 mg p.o.) plasma pharmacokinetics (MDZ and 1′-OH-MDZ) alone and after repeated inhibitor administration; conditions: for MDZ CL, MDZ alone: MDZ 1.5 mg p.o., geometric mean (90% CI)
Experimental: (§1) ITZ tablets (200 mg) were split equally in two, and 100 mg were given to subjects.
(§2) MDZ acted as a nested control in the evaluation of the endogenous urinary markers, and it was administered both orally (1.5 mg) and intravenously (i.v.; 1.0 mg). Participants were all treated the same way for the baseline and randomly split into 3 arms of 8–10 individuals each to evaluate the effect of the inhibitors. […] MDZ pharmacokinetic (PK) profiling and biomarker sampling was also conducted after the washout period and at the end of the study to determine whether enzyme activity returned to baseline levels. The subjects were their control. Treatment, washout and end of study values were compared with values at baseline.
(§3) Plasma concentrations of MDZ and its metabolite 1′-OH-MDZ were analysed using a validated LC-MS/MS method. Plasma samples were extracted using protein precipitation, where 300 µL of acetonitrile (ACN) containing 500 ng/mL diazepam as an internal standard (IS) was added to 100 µL of plasma. The mixture was then vortexed for 10 min, followed by centrifugation at 10,000× g for 5 min at a temperature of 4 °C. The supernatant was collected, and 5 µL were injected into the LC-MS/MS for analysis.
(§4) The mobile phase consisted of 10 mM ammonium formate in 5% methanol (MeOH) (A) and ACN (B). […] The column temperature was maintained at 40 °C. MDZ and 1′-OH-MDZ were detected on a Sciex 3200 mass spectrometer with a turbo ion spray interphase operated in positive ion mode at 5500 V, a temperature of 5000 °C; GS1 and GS2 at 50 and 60 psi, respectively; and a curtain gas flow of 25 psi. […] The quantification of the MDZ and 1′-OH-MDZ was performed using the Analyst software (version 1.2; Applied Biosystems).
(§5) Standard non-compartmental pharmacokinetic (PK) analysis was performed with the WinNolin program, version 4.1 (Pharsight Corp, Mountain View, CA, USA), using the linear up logarithmic down trapezoidal method. The plasma parameters that were assessed and used for the comparison with the urinary biomarker were MDZ clearance (MDZ CL) and the area under the plasma concentration-time curve (AUC) from zero to infinity (AUC0–inf) of MDZ. More PK parameters were evaluated for MDZ and 1′-OH-MDZ.
(§6) The difference between log-transformed treatment/baseline was calculated pairwise for each subject, as well as for their 90% confidence intervals (CIs). These differences and CIs were anti-log-transformed back for reporting purposes. The same analysis was performed for MDZ clearance and AUC0-inf before and after treatment for comparison.
(§7) The pharmacokinetic (PK) parameters of MDZ were performed by standard noncompartmental
(§8) methods using the WinNolin program, version 4.1 (Pharsight Corp, Mountain View, CA, USA).
(§9) were plotted as graphs of midazolam or 1-OH-midazolam concentration vs. time.

[2] = as above; conditions: human, in vivo, po, 1.5 mg; for AUC: MDZ AUC0– (zero to infinity); for AUC / AUC(0-t) / Cmax / Tmax: MDZ alone; for AUC / AUC(0-t) / Cmax / half-life / Tmax: MDZ 1.5 mg p.o., geometric mean (90% CI); for AUC(0-t): MDZ AUClast; for Cmax: MDZ Cmax; for half-life: MDZ T1/2, MDZ alone; for Tmax: MDZ Tmax; for AUC(0-inf): Oral MDZ AUC0-inf, Baseline, MDZ 1.5 mg p.o. before inhibitor, geometric mean (range)
Experimental: as §1, §2, §3, §4, §5, §6, §7, §8, §9

CYP3A [3] = assay: Intravenous MDZ (1.0 mg i.v.) plasma pharmacokinetics (MDZ and 1′-OH-MDZ) alone and after repeated inhibitor administration; conditions: human, in vivo, iv, 1 mg, Baseline, ITZ arm, MDZ 1.0 mg i.v. before inhibitor, geometric mean (range)
Experimental: as §1, §2, §3, §4, §5, §6, §7, §8, §9

[4] = as above; conditions: human, in vivo, iv, 1 mg; for AUC: MDZ AUC0– (zero to infinity); for AUC(0-t): MDZ AUClast; for Cmax: MDZ Cmax; for half-life: MDZ T1/2, MDZ alone; for Tmax: MDZ Tmax; for AUC(0-inf): i.v. MDZ AUC0-inf
Experimental: as §1, §2, §3, §4, §5, §6, §7, §8, §9

[5] = MDZ alone, MDZ 1 mg i.v., APZ arm (Table S1), geometric mean (90% CI)
[6] = MDZ alone, MDZ 1 mg i.v., FKZ arm (Table S2), geometric mean (90% CI)
[7] = MDZ alone, MDZ 1 mg i.v., ITZ arm (Table S3), geometric mean (90% CI)

For Cc1ncc2n1-c1ccc(Cl)cc1C(c1ccccc1F)=NC2 [MDZ, midazolam], the “Oral MDZ CL, Baseline” value (CYP3A [1]; APZ arm, MDZ 1.5 mg p.o. before inhibitor, geometric mean (range)) was 59.1 (28.0–220.5) L/h, the “Oral MDZ CL, Baseline” value (CYP3A [1]; FKZ arm, MDZ 1.5 mg p.o. before inhibitor, geometric mean (range)) was 59.8 (17.0–135.9) L/h and the “Oral MDZ CL, Baseline” value (CYP3A [1]; ITZ arm, MDZ 1.5 mg p.o. before inhibitor, geometric mean (range)) was 126 (46.7–648.8) L/h. The “MDZ CL, MDZ alone” value (CYP3A [1]; APZ arm (Table S1)) was 137.34 (101–186) L/h, the “MDZ CL, MDZ alone” value (CYP3A [1]; FKZ arm (Table S2)) was 77.41 (56.44 – 106.19) L/h and the “MDZ CL, MDZ alone” value (CYP3A [1]; ITZ arm (Table S3)) was 155.58 L/h. It also gave an AUC(0-inf) (CYP3A [1]; human, in vivo, po, 1.5 mg, Oral MDZ AUC0-inf, Baseline, ITZ arm, MDZ 1.5 mg p.o. before inhibitor, geometric mean (range)) of 10.8 ng·h/mL, an AUC ([2]; APZ arm (Table S1)) of 10.6 ng·h/mL and an AUC ([2]; FKZ arm (Table S2)) of 19.4 ng·h/mL. For the same molecule, the AUC ([2]; ITZ arm (Table S3)) was 9.64 ng·h/mL, the AUC(0-t) ([2]; APZ arm (Table S1)) was 10.4 ng·h/mL and the AUC(0-t) ([2]; FKZ arm (Table S2)) was 18.5 ng·h/mL. It also gave an AUC(0-t) ([2]; ITZ arm (Table S3)) of 8.61 ng·h/mL, a Cmax ([2]; APZ arm (Table S1)) of 4.13 ng/mL and a Cmax ([2]; FKZ arm (Table S2)) of 6.18 ng/mL. It also gave a Cmax ([2]; ITZ arm (Table S3)) of 4.86 ng/mL, a half-life ([2]; APZ arm (Table S1)) of 1.63 h and a half-life ([2]; FKZ arm (Table S2)) of 2.26 h. For the same molecule, the half-life ([2]; ITZ arm (Table S3)) was 1.43 h, the Tmax ([2]; APZ arm (Table S1)) was 0.76 h and the Tmax ([2]; FKZ arm (Table S2)) was 0.79 h. The Tmax ([2]; ITZ arm (Table S3)) was 0.63 h, the AUC(0-inf) ([2]; APZ arm) was 10.6 ng·h/mL and the AUC(0-inf) ([2]; FKZ arm) was 22.7 ng·h/mL. For the same molecule, the AUC(0-inf) (CYP3A [3]; i.v. MDZ AUC0-inf) was 12.1 ng·h/mL, the clearance (CYP3A [3]; i.v. MDZ CL) was 1380 mL/min and the AUC [4, 5] was 16.8 ng·h/mL. The AUC [4, 6] was 12.4 ng·h/mL, the AUC [4, 7] was 13.5 ng·h/mL and the AUC(0-t) [4, 5] was 16.6 ng·h/mL. It also gave an AUC(0-t) [4, 6] of 12 ng·h/mL, an AUC(0-t) [4, 7] of 12.9 ng·h/mL and a clearance ([4]; MDZ CL, MDZ alone, MDZ 1 mg i.v., APZ arm (Table S1), geometric mean (90% CI)) of 998 mL/min. The clearance ([4]; MDZ CL, MDZ alone, MDZ 1 mg i.v., FKZ arm (Table S2), geometric mean (90% CI)) was 1350 mL/min, the clearance ([4]; MDZ CL, MDZ alone, MDZ 1 mg i.v., ITZ arm (Table S3), geometric mean (90% CI)) was 1230 mL/min and the Cmax [4, 5] was 26 ng/mL. For the same molecule, the Cmax [4, 6] was 22.6 ng/mL, the Cmax [4, 7] was 25 ng/mL and the half-life ([4]; MDZ 1 mg i.v., APZ arm (Table S1), geometric mean (90% CI)) was 2.06 h. It also gave a half-life ([4]; MDZ 1 mg i.v., FKZ arm (Table S2), geometric mean (90% CI)) of 1.55 h, a half-life ([4]; MDZ 1 mg i.v., ITZ arm (Table S3), geometric mean (90% CI)) of 2.32 h and a Tmax [4, 5] of 0.29 h. The Tmax [4, 7] was 0.28 h, the AUC(0-inf) ([4]; Baseline, APZ arm, MDZ 1.0 mg i.v. before inhibitor, geometric mean (range)) was 16.8 ng·h/mL and the AUC(0-inf) ([4]; Baseline, FKZ arm, MDZ 1.0 mg i.v. before inhibitor, geometric mean (range)) was 12.4 ng·h/mL. For the same molecule, the clearance ([4]; i.v. MDZ CL, Baseline, APZ arm, MDZ 1.0 mg i.v. before inhibitor, geometric mean (range)) was 993 mL/min and the clearance ([4]; i.v. MDZ CL, Baseline, FKZ arm, MDZ 1.0 mg i.v. before inhibitor, geometric mean (range)) was 1350 mL/min.
